From patent US5576439A, “Dihydropyridinecarboxylic acid anhydrides” (Ciba-Geigy Corporation, priority 1994, dated 1996)

Columns and labels:
[1] = molecular target: T1, ETA receptor (Rattus norvegicus, UniProt P26684); assay: ETA receptor inhibitory activity by release of [^3 H]-inositol from labeled A7r5 cells; format: cell-based
T1 construct: labeled A7r5 cells; endogenous in cells; host or cells: A7r5 cells
T1 sequence (P26684 21-426): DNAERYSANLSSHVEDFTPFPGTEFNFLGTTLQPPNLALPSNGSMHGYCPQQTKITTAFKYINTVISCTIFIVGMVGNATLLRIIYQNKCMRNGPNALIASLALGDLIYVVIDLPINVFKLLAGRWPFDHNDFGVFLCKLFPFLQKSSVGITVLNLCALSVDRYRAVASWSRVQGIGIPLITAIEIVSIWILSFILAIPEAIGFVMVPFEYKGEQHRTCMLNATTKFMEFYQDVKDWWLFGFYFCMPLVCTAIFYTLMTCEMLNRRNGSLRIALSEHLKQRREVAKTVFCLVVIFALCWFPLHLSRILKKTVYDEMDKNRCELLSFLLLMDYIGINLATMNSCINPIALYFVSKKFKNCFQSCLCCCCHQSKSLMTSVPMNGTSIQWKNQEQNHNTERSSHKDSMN
From the text: For instance the ETA receptor inhibitory activity can be determined by measuring the release of [^3 H]-inositol from [^3 H]-inositol labeled A7r5 cells, as previously described by Cioffi et at, J. Cardiovasc. Pharmacol. 22 (Suppl. 8), S-168 (1993).

[2] = molecular target: T2, ETA receptor (Sus scrofa, UniProt Q29010); assay: Inhibition of [^125 I] ET-1 binding to porcine thoracic aorta membranes
T2 construct: porcine thoracic aorta membranes (ETA receptor); from tissue; host or cells: porcine thoracic aorta membranes
T2 sequence (Q29010 21-427): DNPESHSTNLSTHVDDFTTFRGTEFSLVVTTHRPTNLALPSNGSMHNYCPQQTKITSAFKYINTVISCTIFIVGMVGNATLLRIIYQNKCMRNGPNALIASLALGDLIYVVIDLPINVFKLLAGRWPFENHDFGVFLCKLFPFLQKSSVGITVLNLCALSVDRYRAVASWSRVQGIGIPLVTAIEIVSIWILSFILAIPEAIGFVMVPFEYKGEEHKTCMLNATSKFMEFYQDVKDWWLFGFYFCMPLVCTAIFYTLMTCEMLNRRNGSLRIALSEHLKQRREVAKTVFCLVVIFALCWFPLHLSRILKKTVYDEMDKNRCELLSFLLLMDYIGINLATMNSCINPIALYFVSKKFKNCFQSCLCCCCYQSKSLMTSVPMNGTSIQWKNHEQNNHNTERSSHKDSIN
Protocol: (§1) Inhibition of the binding of [^125 I] ET-1 to porcine thoracic aorta membranes (ETA receptor) is determined according to Cioffi et al, J. Pharmacol. Exp. Ther. 262, 611 (1992); similarly inhibition of binding of [^125 I] ET-1 to rat cerebellum membranes (ETB receptor).

[3] = molecular target: T3, ETB receptor (Rattus norvegicus, UniProt P21451); assay: Inhibition of [^125 I] ET-1 binding to rat cerebellum membranes
T3 construct: rat cerebellum membranes (ETB receptor); from tissue; host or cells: rat cerebellum membranes
T3 sequence (P21451 27-442): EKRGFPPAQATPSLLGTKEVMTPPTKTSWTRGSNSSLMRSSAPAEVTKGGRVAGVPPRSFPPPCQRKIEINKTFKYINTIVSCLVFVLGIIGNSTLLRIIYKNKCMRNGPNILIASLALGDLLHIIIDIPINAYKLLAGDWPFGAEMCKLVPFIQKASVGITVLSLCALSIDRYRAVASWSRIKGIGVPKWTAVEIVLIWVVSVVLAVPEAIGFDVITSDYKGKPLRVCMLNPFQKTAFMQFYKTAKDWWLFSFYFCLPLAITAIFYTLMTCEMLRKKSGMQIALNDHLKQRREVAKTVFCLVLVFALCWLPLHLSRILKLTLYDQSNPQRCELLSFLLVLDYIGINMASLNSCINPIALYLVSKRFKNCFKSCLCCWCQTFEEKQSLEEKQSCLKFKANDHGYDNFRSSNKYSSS
Protocol: as §1

[4] = system: ET-1 induced contractile response in isolated rabbit aorta; assay: Inhibition of ET-1 induced contractile response in isolated rabbit aorta; settings: 10 μM, 30 minute pretreatment
Protocol: (§2) The cardiovascular effects of ET-1 inhibitory activity can be determined as follows:
(§3) A 30 minute pretreatment with test compound (0.1-10 μM) is utilized to determine inhibition of the ET-1 induced contractile response in isolated rabbit aorta. The maximal response to ET-1 is measured at 0.1, 1 and 10 μM, respectively. Similar pretreatment with test compound (1 μM) is utilized to determine the effects of phenylephrine or KCl induced contraction, an indication that the specificity of hemodynamic affects is caused by intereaction with the endothelin receptor. A 5 minute pretreatment with test compound (10 mg/kg, i.v.) is also used to assess the effects on pressor response and attenuation of the depressor response to ET-1 (0.25 nmol/kg iv.) in the conscious rat.

[5] = system: increase in blood pressure induced by ET-1; assay: Effect on pressor response to ET-1 in the conscious rat; format: in vivo; settings: 10 mg/Kg i.v., 5 minute pretreatment, ET-1 0.25 nmol/kg i.v.
Protocol: as §2, §3

Structure (SMILES): COC(=O)C1=C(C)NC(C)=C(C(=O)OC(=O)C2=C(C)NC(C)=C(C(=O)OC)[C@@H]2c2cccc([N+](=O)[O-])c2)[C@@H]1c1cccc([N+](=O)[O-])c1 [Example 1, meso-1,4-dihydro-5-methoxycarbonyl-2,6-dimethyl-4-(3-nitrophenyl)-3-pyridine-carboxylic acid anhydride]
- IC50 [1]: ~140 nM
- IC50 [2]: ~16 nM
- IC50 [3]: ~300 nM
- inhibition of ET-1 induced contractile response [4]: 77%
- antagonism of increase in blood pressure induced by ET-1 [5]: completely antagonizes
